We go through one substance from patent US8642539B2, “Method for treating a disease characterized by reduced appetite” (Takeda Pharmaceutical Company Limited, priority 2007, dated 2014).

Entries after “also recorded” stand apart in the source; their conditions may differ.

Assay [1] concerns the target GPR100 (Homo sapiens, UniProt Q8TDU9). The settings on record: mature Insl5; cited from earlier work.
Assay [2] has as its system wt mice. In words: Insl5 administered intraperitoneally, food intake in wt mice. It is filed as in vivo. The settings on record: wt mice (129/SvEv), intraperitoneal, dose dependent; FIG. 9 upper panel. As to the method: (§1) To test the hypothesis that Insl5 is an orexigenic hormone directly, it was administered intraperitoneally to wt and GPR100−/− mice. […] Moreover, this effect is mediated through GPR100.

Assay [3] concerns GPR100−/− mice. In words: Insl5 administered intraperitoneally, feeding behaviour in GPR100−/− mice. It is filed as in vivo. The settings on record: intraperitoneal, FIG. 9 lower panel. As to the method:
as §1

Chain of GPR100 (Q8TDU9 whole entry, species assumed): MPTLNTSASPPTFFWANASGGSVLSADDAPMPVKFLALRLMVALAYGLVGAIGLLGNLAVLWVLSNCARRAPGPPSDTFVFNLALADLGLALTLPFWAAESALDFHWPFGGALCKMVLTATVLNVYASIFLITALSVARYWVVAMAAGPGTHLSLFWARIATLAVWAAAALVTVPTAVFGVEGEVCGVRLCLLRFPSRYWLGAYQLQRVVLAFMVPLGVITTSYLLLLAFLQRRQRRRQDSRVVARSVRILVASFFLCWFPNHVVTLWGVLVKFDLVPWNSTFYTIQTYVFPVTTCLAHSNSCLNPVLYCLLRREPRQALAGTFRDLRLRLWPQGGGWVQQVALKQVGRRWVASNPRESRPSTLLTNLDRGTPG

With “insulin-like peptide 5 [Insl5, 45 amino acid residue mature peptide comprising an A chain and a B chain connected by disulfide bonds; endogenous ligand of GPR100]”, the “affinity in displacing relaxin-3 peptide from GPR100” value in assay [1] is “high affinity, in the nanomolar range”. Moreover, the food intake result in assay [2] is listed as “increase of food intake; also recorded: significant increase in food intake”. The feeding behaviour entry in assay [3] was “no effect on feeding behaviour”.
